Laboratory results as given in patent US20030219491A1, “Compositions for inhibiting tumor growth and methods thereof” (priority 2002, published 2003).

Key:
[1] = molecular target: polyhemoglobin-tyrosinase complex (bovine hemoglobin crosslinked with mushroom tyrosinase) (Bos taurus, UniProt P01966+P02070); details: crosslink time 24 h; versus pure bovine hemoglobin in free form
[2] = test system: tyrosinase from mushroom, free (1020 U/3 ml); experiment: Vmax and Km of free tyrosinase; format: biochemical; details: substrate tyrosine
Description: (§1) L-tyrosine (98% TLC), hemoglobin from bovine (lyophilized powder), hemoglobin assay kit, tyrosinase from mushroom (3400 U/mg manufacturer's stated activity) were purchased from Sigma-Aldrich (Oakville, Canada). Collodion was obtained from Fisher Scientific (Nepean, Canada). Glutaraldehyde (25%) was obtained from Polyscienes (Warrington, Pa.). Purified bovine hemoglobin was purchased from Biopure Corporation (Boston, Mass.). All other reagents were of analytical grade.
This is to characterize the enzyme kinetics of the preparation and comparing this encapsulated tyrosinse preparation to free tyrosinase.

[3] = test system: tyrosinase from mushroom, encapsulated (1020 U/3 ml); experiment: Apparent Vmax and apparent Km of encapsulated tyrosinase; format: biochemical; details: substrate tyrosine
Description: as §1
One gram hemoglobin and 200 mg […] was dissolved in 10 ml double distilled deionized water. Stir with a metal rod until everything is dissolved. Gravity filter the solution through a Waterman #42 filter into a Erlenmeyer flask. Take 2.5 ml of this 10 g/dl hemoglobin solution and was encapsulated within spherical, ultrathin, cellulose nitrate membrane. Without tyrosinase loaded microcapsules were administrated orally to control group. For tyrosinase loaded microencapsules, […] of 3400 U/mg tyrosinase was dissolved in 2.5 ml 10% hemoglobin solution, then followed the methods described above to immobilize tyrosinase in collodion membrane microcapsules. Microcapsules prepared as a 50% suspension for later feeding. […]
Next, the apparent Vmax and apparent Km value for encapsulated tyrosinase (1020 U/3 ml) were studied. The leakage of encapsulated tyrosinase is also measured.

Sequence of polyhemoglobin-tyrosinase complex (bovine hemoglobin crosslinked with mushroom tyrosinase) (P01966 whole entry): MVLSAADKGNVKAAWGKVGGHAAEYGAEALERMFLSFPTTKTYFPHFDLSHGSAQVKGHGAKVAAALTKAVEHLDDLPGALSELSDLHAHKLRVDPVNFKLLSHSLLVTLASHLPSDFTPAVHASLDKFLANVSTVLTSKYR
Sequence of polyhemoglobin-tyrosinase complex (bovine hemoglobin crosslinked with mushroom tyrosinase) (P02070 whole entry): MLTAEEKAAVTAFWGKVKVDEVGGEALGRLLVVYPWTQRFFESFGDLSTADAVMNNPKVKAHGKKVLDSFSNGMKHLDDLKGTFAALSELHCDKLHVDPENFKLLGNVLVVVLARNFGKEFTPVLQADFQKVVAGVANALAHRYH

| SMILES | P50 (oxygen dissociation), difference from free hemoglobin [1] | Vmax [2] [mg/dl · min] | Apparent Vmax [3] [mg/dl · min] | Km [3] [µM] |
| --- | --- | --- | --- | --- |
| O=O [oxygen] | no significant difference | – | – | – |
| N[C@@H](Cc1ccc(O)cc1)C(=O)O [tyrosine, L-tyrosine] | – | 114.94 | 49.02 | 465 |
